Test results published in patent US10738056B2 (Aduro BioTech, Inc., priority 2017, dated 2020).

Assays:
[1] = target: Human cGAS amino acids 155-522 (Homo sapiens (Human), UniProt Q8N884); test: cGAS biochemical activity assay (ATP remaining, Kinase-Glo Max luminescence); conditions: human cGAS 155-522, ATP remaining (Kinase-Glo Max); read-out: cGAS IC50
[2] = system: cGAS/STING pathway in THP1 cells; test: THP1 cell-based cGAS/STING pathway activity assay (IRF-3-linked luciferase reporter); conditions: Homo sapiens, THP-1
In short: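 THP1 cells carrying an IRF-3-driven luciferase reporter were read across a range of compound concentrations, and IC50 values were derived from these concentration responses; the assay upper limit was 100 μM.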

Sequence of Human cGAS amino acids 155-522 (Q8N884 157-522): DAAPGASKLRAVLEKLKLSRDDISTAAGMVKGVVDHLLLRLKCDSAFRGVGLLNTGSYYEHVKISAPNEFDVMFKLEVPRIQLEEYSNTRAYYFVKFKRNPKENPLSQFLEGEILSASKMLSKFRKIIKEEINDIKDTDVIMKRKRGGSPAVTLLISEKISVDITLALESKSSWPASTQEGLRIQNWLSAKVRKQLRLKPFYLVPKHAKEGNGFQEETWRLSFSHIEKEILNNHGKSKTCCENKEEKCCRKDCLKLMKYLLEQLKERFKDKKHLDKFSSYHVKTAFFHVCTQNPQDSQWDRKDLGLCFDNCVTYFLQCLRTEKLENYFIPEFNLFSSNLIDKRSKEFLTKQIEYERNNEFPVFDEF

SMILES | IC50 [1] | IC50 [2]
Cc1[nH]c2c(-c3ccccc3)c(C(F)(F)F)nn2c(=O)c1-c1nc2ccccc2[nH]1 [Compound C1005, 6-(1H-benzo[d]imidazol-2-yl)-5-methyl-3-phenyl-2-(trifluoromethyl)pyrazolo[1,5-a]pyrimidin-7(4H)-one] | 20 to 250 µM | > 100 µM
CCOC(=O)c1coc(-c2c(C)[nH]c3c(-c4ccccc4)c(C(F)(F)F)nn3c2=O)n1 [Compound C1101, ethyl 2-(5-methyl-7-oxo-3-phenyl-2-(trifluoromethyl)-4,7-dihydropyrazolo[1,5-a]pyrimidin-6-yl)oxazole-4-carboxylate] | < 20 µM | 20 to 100 µM
COc1ccc2[nH]c(-c3c(C)[nH]c4c(-c5ccccc5)c(C(F)(F)F)nn4c3=O)nc2c1 [Compound C1016, 6-(5-methoxy-1H-benzo[d]imidazol-2-yl)-5-methyl-3-phenyl-2-(trifluoromethyl)pyrazolo[1,5-a]pyrimidin-7(4H)-one] | < 20 µM | < 20 µM
COC1CCCCC1NC(=O)c1c(C)[nH]c2c(-c3ccccc3)c(C(F)(F)F)nn2c1=O (single isomer, unassigned) [Compound A1089, N-(2-methoxycyclohexyl)-5-methyl-7-oxo-3-phenyl-2-(trifluoromethyl)-4,7-dihydropyrazolo[1,5-a]pyrimidine-6-carboxamide] | < 20 µM | > 100 µM
COc1cccc2oc(-c3c(C)[nH]c4c(-c5ccccc5)c(C#N)nn4c3=O)nc12 [Compound C1051, 6-(4-methoxybenzo[d]oxazol-2-yl)-5-methyl-7-oxo-3-phenyl-4,7-dihydropyrazolo[1,5-a]pyrimidine-2-carbonitrile] | < 20 µM | 20 to 100 µM
COc1cccc2oc(-c3c(C)[nH]c4c(-c5ccccc5)c(C)nn4c3=O)nc12 [Compound C1042, 6-(4-methoxybenzo[d]oxazol-2-yl)-2,5-dimethyl-3-phenylpyrazolo[1,5-a]pyrimidin-7(4H)-one] | < 20 µM | < 20 µM
Cc1[nH]c2c(-c3ccccc3)c(C(F)(F)F)nn2c(=O)c1-c1nc2c(OCCN)cccc2o1 [Compound C1061, 6-(4-(2-aminoethoxy)benzo[d]oxazol-2-yl)-5-methyl-3-phenyl-2-(trifluoromethyl)pyrazolo[1,5-a]pyrimidin-7(4H)-one] | 20 to 250 µM | 20 to 100 µM
Cc1[nH]c2c(-c3ccccc3)c(C(F)(F)F)nn2c(=O)c1C(=O)NS(=O)(=O)Cc1ccccc1 [Compound A1112, N-(benzylsulfonyl)-5-methyl-7-oxo-3-phenyl-2-(trifluoromethyl)-4,7-dihydropyrazolo[1,5-a]pyrimidine-6-carboxamide] | < 20 µM | 20 to 100 µM
COc1cccc2oc(-c3c(CO)[nH]c4c(-c5ccccc5)c(C(F)(F)F)nn4c3=O)nc12 [Compound C1103, 5-(hydroxymethyl)-6-(4-methoxybenzo[d]oxazol-2-yl)-3-phenyl-2-(trifluoromethyl)pyrazolo[1,5-a]pyrimidin-7(4H)-one] | < 20 µM | 20 to 100 µM
COc1cccc(NC(=O)c2c(C)[nH]c3c(-c4ccccc4)c(C(F)(F)F)nn3c2=O)c1F [Compound A1136, N-(2-fluoro-3-methoxyphenyl)-5-methyl-7-oxo-3-phenyl-2-(trifluoromethyl)-4,7-dihydropyrazolo[1,5-a]pyrimidine-6-carboxamide] | < 20 µM | 20 to 100 µM
Cc1[nH]c2c(-c3ccccc3)c(C(F)(F)F)nn2c(=O)c1C(=O)Nc1nc(C(C)C)co1 [Compound A1048, N-(4-isopropyloxazol-2-yl)-5-methyl-7-oxo-3-phenyl-2-(trifluoromethyl)-4,7-dihydropyrazolo[1,5-a]pyrimidine-6-carboxamide] | 20 to 250 µM | 20 to 100 µM
CC(=O)Nc1cccc2nc(-c3c(C)[nH]c4c(-c5ccccc5)c(C(F)(F)F)nn4c3=O)[nH]c12 [Compound C1009, N-(2-(5-methyl-7-oxo-3-phenyl-2-(trifluoromethyl)-4,7-dihydropyrazolo[1,5-a]pyrimidin-6-yl)-1H-benzo[d]imidazol-7-yl)acetamide] | < 20 µM | 20 to 100 µM

Further lines, results first:

IC50 [1] | IC50 [2] | SMILES
< 20 µM | > 100 µM | Cc1[nH]c2c(-c3ccccc3)c(C(F)(F)F)nn2c(=O)c1-c1nc(CO)c(C(C)C)o1 [Compound C1143, 6-(4-(hydroxymethyl)-5-isopropyloxazol-2-yl)-5-methyl-3-phenyl-2-(trifluoromethyl)pyrazolo[1,5-a]pyrimidin-7(4H)-one]
< 20 µM | > 100 µM | Cc1[nH]c2c(-c3ccccc3)c(C(F)(F)F)nn2c(=O)c1-c1nc(CO)co1 [Compound C1104, 6-(4-(hydroxymethyl)oxazol-2-yl)-5-methyl-3-phenyl-2-(trifluoromethyl)pyrazolo[1,5-a]pyrimidin-7(4H)-one]
< 20 µM | 20 to 100 µM | COC1(c2nnc(-c3c(C)[nH]c4c(-c5ccccc5)c(C(F)(F)F)nn4c3=O)o2)CCCC1 [Compound D1055, 6-(5-(1-methoxycyclopentyl)-1,3,4-oxadiazol-2-yl)-5-methyl-3-phenyl-2-(trifluoromethyl)pyrazolo[1,5-a]pyrimidin-7(4H)-one]
< 20 µM | > 100 µM | COc1cc([N+](C)(C)C)cc2oc(-c3c(C)[nH]c4c(-c5ccccc5)c(C(F)(F)F)nn4c3=O)nc12 [Compound C1163, 4-methoxy-N,N,N-trimethyl-2-(5-methyl-7-oxo-3-phenyl-2-(trifluoromethyl)-4,7-dihydropyrazolo[1,5-a]pyrimidin-6-yl)benzo[d]oxazol-6-aminium]
< 20 µM | > 100 µM | COc1cccc2oc(-c3c(N4CCCC(C(=O)O)C4)[nH]c4c(-c5ccccc5)c(C(F)(F)F)nn4c3=O)nc12 (centres unmarked) [Compound C1257, 1-(6-(4-methoxybenzo[d]oxazol-2-yl)-7-oxo-3-phenyl-2-(trifluoromethyl)-4,7-dihydropyrazolo[1,5-a]pyrimidin-5-yl)piperidine-3-carboxylic acid]
> 250 µM | < 20 µM | COc1cccc2oc(-c3c(C)[nH]c4c(-c5ccc(F)cc5)c(C(F)(F)F)nn4c3=O)nc12 [Compound C1107, 3-(4-fluorophenyl)-6-(4-methoxybenzo[d]oxazol-2-yl)-5-methyl-2-(trifluoromethyl)pyrazolo[1,5-a]pyrimidin-7(4H)-one]
< 20 µM | > 100 µM | COCc1[nH]c2c(-c3ccccc3)c(C#N)nn2c(=O)c1-c1nc2c(OC)nc(N)cc2o1 [Compound C1227, 6-(6-amino-4-methoxyoxazolo[4,5-c]pyridin-2-yl)-5-(methoxymethyl)-7-oxo-3-phenyl-4,7-dihydropyrazolo[1,5-a]pyrimidine-2-carbonitrile]
< 20 µM | 20 to 100 µM | Cc1[nH]c2c(-c3ccccc3)c(C(F)(F)F)nn2c(=O)c1-c1nc2ccc(N)cc2o1 [Compound C1156, 6-(6-aminobenzo[d]oxazol-2-yl)-5-methyl-3-phenyl-2-(trifluoromethyl)pyrazolo[1,5-a]pyrimidin-7(4H)-one]
< 20 µM | > 100 µM | COc1cccc2oc(-c3c(C(=O)NCC(=O)O)[nH]c4c(-c5ccccc5)c(C(F)(F)F)nn4c3=O)nc12 [Compound C1195, (6-(4-methoxybenzo[d]oxazol-2-yl)-7-oxo-3-phenyl-2-(trifluoromethyl)-4,7-dihydropyrazolo[1,5-a]pyrimidine-5-carbonyl)glycine]
< 20 µM | > 100 µM | COc1ccc(CO)c2oc(-c3c(C)[nH]c4c(-c5ccccc5)c(C(F)(F)F)nn4c3=O)nc12 [Compound C1224, 6-(7-(hydroxymethyl)-4-methoxybenzo[d]oxazol-2-yl)-5-methyl-3-phenyl-2-(trifluoromethyl)pyrazolo[1,5-a]pyrimidin-7(4H)-one]
< 20 µM | > 100 µM | Cc1[nH]c2c(-c3ccccc3)c(C#N)nn2c(=O)c1-c1nc2cccc(N)c2o1 [Compound C1230, 6-(7-aminobenzo[d]oxazol-2-yl)-5-methyl-7-oxo-3-phenyl-4,7-dihydropyrazolo[1,5-a]pyrimidine-2-carbonitrile]
< 20 µM | > 100 µM | Cc1[nH]c2c(-c3ccccc3)c(C(F)(F)F)nn2c(=O)c1-c1nnc(NC(=N)N)o1 [Compound D1077, 1-(5-(5-methyl-7-oxo-3-phenyl-2-(trifluoromethyl)-4,7-dihydropyrazolo[1,5-a]pyrimidin-6-yl)-1,3,4-oxadiazol-2-yl)guanidine]
< 20 µM | > 100 µM | Cc1[nH]c2c(-c3ccccc3)c(C(F)(F)F)nn2c(=O)c1-c1nnc(-c2ccnc(O)c2)o1 [Compound D1085, 6-(5-(2-hydroxypyridin-4-yl)-1,3,4-oxadiazol-2-yl)-5-methyl-3-phenyl-2-(trifluoromethyl)pyrazolo[1,5-a]pyrimidin-7(4H)-one]
< 20 µM | > 100 µM | COc1cccc2oc(-c3c(C(=O)NC4CCOCC4)[nH]c4c(-c5ccccc5)c(C(F)(F)F)nn4c3=O)nc12 [Compound C1194, 6-(4-methoxybenzo[d]oxazol-2-yl)-7-oxo-3-phenyl-N-(tetrahydro-2H-pyran-4-yl)-2-(trifluoromethyl)-4,7-dihydropyrazolo[1,5-a]pyrimidine-5-carboxamide]
< 20 µM | > 100 µM | Cc1[nH]c2c(-c3ccccc3)c(C(F)(F)F)nn2c(=O)c1-c1nc2c(=O)[nH]ccc2o1 [Compound C1116, 2-(5-methyl-7-oxo-3-phenyl-2-(trifluoromethyl)-4,7-dihydropyrazolo[1,5-a]pyrimidin-6-yl)oxazolo[4,5-c]pyridin-4(5H)-one]
< 20 µM | < 20 µM | CCc1cccc2oc(-c3c(C)[nH]c4c(-c5ccccc5)c(C#N)nn4c3=O)nc12 [Compound C1188, 6-(4-ethylbenzo[d]oxazol-2-yl)-5-methyl-7-oxo-3-phenyl-4,7-dihydropyrazolo[1,5-a]pyrimidine-2-carbonitrile]
